Experimental data published in patent US7592326B2, “Method for stimulating the immune, inflammatory or neuroprotective response” (priority 2004, dated 2009).

Columns and labels:
[1] = tested on: DCs; assay: Mannose receptor-mediated endocytosis (FITC-dextran uptake); format: cell-based, human; conditions: DCs treated 24 h; FIG. 2
Procedure: Mannose receptor (MR)-mediated endocytosis was measured as the cellular uptake of FITC-dextran (DX) and quantified by flow cytometry. A total of 2×10^5 cells per sample were incubated in media containing FITC-DX (1 mg/ml) (Mv 40,000). After 15 min of incubation at 37° C. or 4° C. (as negative control), cells were washed four times with cold PBS containing 1% FCS and 0.01% NaN3 and fixed in 1% formaldehyde. The background (cells pulsed at 4° C.) was always subtracted.

[2] = tested on: influenza virus A/Puerto Rico/8/34 (H1N1, PR8); conditions: in vivo
[3] = tested on: S. pneumoniae strain D39; assay: Mouse pneumococcal pneumonia (proposed); format: in vivo; conditions: 200 nmol 24- and 48 hours prior; 1×10^5 CFU D39
[4] = pH 10
[5] = tested on: S. aureus; conditions: cited from earlier work

## Nc1nc(=O)c2ncn([C@@H]3OC4COP(=O)(O)O[C@H]5[C@@H](O)[C@H](n6cnc7c(=O)nc(N)[nH]c76)O[C@@H]5COP(=O)(O)OC4C3O)c2[nH]1 (stereo partly drawn) [c-di-GMP, Bis(3′→5′)-cyclic diguanylic acid]
[1]
  uptake of FITC-DX (MR-mediated endocytosis): did not induce any major effect
[2]
  outcome compared to control mice: increased survival, less weight loss
[3]
  bacterial counts in the lungs: decreased bacterial counts
[4]
  stability at physiological conditions: stable
[5]; intramammary, at time of challenge and 4 h post-inoculation
  colonization of the mouse mammary glands by S. aureus: significantly decreased
[5]; previously published studies
  in-vivo dose giving maximal benefit: 200 nmoles/animal
